Experimental findings from patent US12338199B2, “Bis-octahydrophenanthrene carboxamides and protein conjugates thereof” (REGENERON PHARMACEUTICALS, INC., priority 2017, dated 2025) are described below.

Experiment [1] concerns THP1/LXR-Luc cells. Nature of the experiment: THP1/LXR-Luc luciferase reporter bioassay. Type of experiment: cell-based. As to conditions: Homo sapiens, THP-1, 48 hours. An outline of the steps:
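THP1 cells stably carrying an LXR-response-element firefly luciferase reporter were seeded at 30,000/well in RPMI/10% FBS and given 3-fold dilutions (100 nM to 0.01 nM) for 48 or 72 h. Luminescence was read with One-Glo. EC50 came from a 4-parameter fit of a 10-point curve, and fold activation was taken relative to maximal free-payload activation.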

Experiment [2] deals with THP1/LXR-Luc cells. As to the kind of experiment: LXR-luciferase reporter bioassay in PMA-differentiated THP1/LXR-Luc cells. As to conditions: for EC50: Homo sapiens, THP-1, 48 h, read-out: EC50. Type of experiment: cell-based, human. An excerpt: To test the efficacy of anti-MSR1 antibody-LXR conjugates in vitro, a cell-based LXR responsive luciferase reporter assay was developed. To generate the assay cell line, a LXR regulated luciferase reporter gene [Cignal Lenti LXR Reporter (luc) kit (Qiagen, Cat # CLS-001L)] was transduced into THP1 cells, and cells were selected for two weeks in puromycin. The lentivirus expresses the firefly luciferase gene under the control of a minimal CMV promoter and tandem repeats of the LXR transcriptional response element. The resulting cell line is referred to as THP1/LXR-Luc cells.
THP1/LXR-Luc cells were seeded onto 96 well plates at 40,000 cells/well in media containing RPMI supplemented with 10% FBS and pencillin/streptomycin and subsequently differentiated with 200 nM Phorbol Myristate Acetate (PMA) for 3 days. After the 3-day differentiation period, three-fold serial dilutions of antibody drug conjugates, unconjugated antibodies, or free payloads in fresh media were added to the cells at final concentration ranging from 100 nM to 0.01 nM. Media alone served as a blank control. Forty-eight hours later, luciferase activity was determined after the addition of One-Glo™ reagent (Promega, Cat # E6130) to each well. Relative light units (RLUs) were measured on a Victor luminometer (PerkinElmer) and EC50 values were determined using a four-parameter logistic equation over a 10-point dose response curve (GraphPad Prism). The signal to noise (S/N) was determined by calculating the ratio of RLU of standard one over RLU of standard eight for each of the unconjugated anti-MSR1 antibodies or free payloads. “LP #” represents a linker-payload for which the corresponding structures are provided elsewhere herein, and “P #” represents a payload for which the corresponding structures are provided elsewhere herein.
Background: In a reporter assay the amount or activity of a reporter protein is the signal.

Each structure is given as a SMILES string. Where only a bound is given, the exact number is not on record here.

As for `C[C@]1(C(=O)NC(=O)[C@@]2(C)CCC[C@]3(C)c4cc(O)ccc4CC[C@@H]23)CCC[C@]2(C)c3cc(N)ccc3CC[C@@H]12` [Compound 9d, (1S,4aS,10aR)—N-[(1S,4aS,10aR)-6-Amino-1,4a-dimethyl-1,2,3,4,4a,9,10,10a-octahydrophenanthrene-1-carbonyl]-6-hydroxy-1,4a-dimethyl-1,2,3,4,4a,9,10,10a-octahydrophenanthrene-1-carboxamide], the EC50 was no more than 1 nM in the experiment on THP1/LXR-Luc cells [1] (read-out: Activation of THP1/LXR-Luc cells: EC50); 15.9 nM in the experiment on THP1/LXR-Luc cells [2] (48-hour time point, stimulation of THP1/Luc cells); 1.14 nM with THP1/LXR-Luc cells [2] (PMA-differentiated THP1/LXR-Luc cells, 48 hours, luciferase activity (One-Glo), 10-point dose response 100 nM to 0.01 nM). Besides, in the experiment with THP1/LXR-Luc cells [1] (relative to maximum activation of free payload 9d, read-out: Activation of THP1/LXR-Luc cells: Fold of activation), the Emax is greater than 75%. Moreover, the “S/N (signal to noise, ratio of RLU of standard one over RLU of standard eight)” value in the experiment with THP1/LXR-Luc cells [2] (PMA-differentiated THP1/LXR-Luc cells, 48 hours, luciferase activity) came to 15.9.
